Assay results published in ChEMBL document CHEMBL1143172, “Profiling Protein Arginine Deiminase 4 (PAD4): a novel screen to identify PAD4 inhibitors” (Bioorg Med Chem, 2008).

Assays:
[1] = target: T1, Protein-arginine deiminase type-4 (Homo sapiens, UniProt Q9UM07); experiment: Inhibition of PAD4 measured by intercept plot of Lineweaver-Burke analyses
[2] = target: T1, Protein-arginine deiminase type-4; experiment: Inhibition of PAD4 measured by slope plot of Lineweaver-Burke analyses
[3] = target: T1, Protein-arginine deiminase type-4; experiment: Inhibition of PAD4 by ABPP-based assay

T1 sequence (Q9UM07 whole entry): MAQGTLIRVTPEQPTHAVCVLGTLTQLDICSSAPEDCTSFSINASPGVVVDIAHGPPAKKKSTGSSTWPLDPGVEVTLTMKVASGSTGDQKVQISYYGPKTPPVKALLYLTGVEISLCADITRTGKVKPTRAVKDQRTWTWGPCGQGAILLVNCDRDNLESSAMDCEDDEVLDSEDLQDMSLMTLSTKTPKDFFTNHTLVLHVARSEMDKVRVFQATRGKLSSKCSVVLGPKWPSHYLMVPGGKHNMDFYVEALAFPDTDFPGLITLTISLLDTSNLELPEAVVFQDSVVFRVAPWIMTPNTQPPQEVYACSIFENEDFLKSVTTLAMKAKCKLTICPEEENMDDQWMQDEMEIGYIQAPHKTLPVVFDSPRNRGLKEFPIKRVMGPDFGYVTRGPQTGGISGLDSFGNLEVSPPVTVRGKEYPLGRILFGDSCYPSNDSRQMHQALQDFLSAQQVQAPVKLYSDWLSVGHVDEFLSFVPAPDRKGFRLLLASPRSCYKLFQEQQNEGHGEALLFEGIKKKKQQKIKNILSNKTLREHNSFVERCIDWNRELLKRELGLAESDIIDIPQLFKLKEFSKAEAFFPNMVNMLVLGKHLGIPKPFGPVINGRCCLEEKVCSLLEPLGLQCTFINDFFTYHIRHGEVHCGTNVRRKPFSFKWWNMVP

Compound | Ki [1] | Ki [2] | IC50 [3]
Cn1cnc([N+](=O)[O-])c1Sc1ncnc2nc[nH]c12 [AZATHIOPRINE] |  |  | 8100 µM
Cc1oncc1C(=O)Nc1ccc(C(F)(F)F)cc1 [LEFLUNOMIDE] |  |  | 2400 µM
Cc1cc(NS(=O)(=O)c2ccc(N)cc2)no1 [SULFAMETHOXAZOLE] |  |  | > 10000 µM
CN(C)[C@@H]1C(O)=C(C(N)=O)C(=O)[C@@]2(O)C(O)=C3C(=O)c4c(O)cccc4[C@@](C)(O)[C@H]3C[C@@H]12 [TETRACYCLINE] |  |  | 780 µM

More lines, now with the values ahead:

Ki [1] | Ki [2] | IC50 [3] | Compound
630 µM | 180 µM | 620 µM | CN(C)c1ccc(O)c2c1C[C@H]1CC3[C@H](N(C)C)C(O)=C(C(N)=O)C(=O)C3(O)C(O)=C1C2=O (single isomer, unassigned) [MINOCYCLINE]
 |  | > 10000 µM | CC[C@H]1OC(=O)[C@H](C)[C@@H](O[C@H]2C[C@@](C)(OC)[C@@H](O)[C@H](C)O2)[C@H](C)[C@@H](O[C@@H]2O[C@H](C)C[C@H](N(C)C)[C@H]2O)[C@](C)(O)C[C@@H](C)CN(C)[C@H](C)[C@@H](O)[C@]1(C)O [AZITHROMYCIN]
 |  | > 10000 µM | CN(Cc1cnc2nc(N)nc(N)c2n1)c1ccc(C(=O)N[C@@H](CCC(=O)O)C(=O)O)cc1 [METHOTREXATE]
